Results: ChEMBL document CHEMBL5108067, “Discovery of Potent OTUB1/USP8 Dual Inhibitors Targeting Proteostasis in Non-Small-Cell Lung Cancer” (J Med Chem, 2022)

Key:
[1] = biological target: T1, Ubiquitin carboxyl-terminal hydrolase 8 (Homo sapiens) (UniProt P40818); test: Inhibition of N-terminal His-6 tagged USP8 (734 to 1110 residues) (unknown origin) expressed in Escherichia coli BL21 (DE3) cells at 10 nM measured after 3 hrs by fluorescence based Plate reader method relative to control; conditions: values are per cent of control
T1 sequence (whole entry): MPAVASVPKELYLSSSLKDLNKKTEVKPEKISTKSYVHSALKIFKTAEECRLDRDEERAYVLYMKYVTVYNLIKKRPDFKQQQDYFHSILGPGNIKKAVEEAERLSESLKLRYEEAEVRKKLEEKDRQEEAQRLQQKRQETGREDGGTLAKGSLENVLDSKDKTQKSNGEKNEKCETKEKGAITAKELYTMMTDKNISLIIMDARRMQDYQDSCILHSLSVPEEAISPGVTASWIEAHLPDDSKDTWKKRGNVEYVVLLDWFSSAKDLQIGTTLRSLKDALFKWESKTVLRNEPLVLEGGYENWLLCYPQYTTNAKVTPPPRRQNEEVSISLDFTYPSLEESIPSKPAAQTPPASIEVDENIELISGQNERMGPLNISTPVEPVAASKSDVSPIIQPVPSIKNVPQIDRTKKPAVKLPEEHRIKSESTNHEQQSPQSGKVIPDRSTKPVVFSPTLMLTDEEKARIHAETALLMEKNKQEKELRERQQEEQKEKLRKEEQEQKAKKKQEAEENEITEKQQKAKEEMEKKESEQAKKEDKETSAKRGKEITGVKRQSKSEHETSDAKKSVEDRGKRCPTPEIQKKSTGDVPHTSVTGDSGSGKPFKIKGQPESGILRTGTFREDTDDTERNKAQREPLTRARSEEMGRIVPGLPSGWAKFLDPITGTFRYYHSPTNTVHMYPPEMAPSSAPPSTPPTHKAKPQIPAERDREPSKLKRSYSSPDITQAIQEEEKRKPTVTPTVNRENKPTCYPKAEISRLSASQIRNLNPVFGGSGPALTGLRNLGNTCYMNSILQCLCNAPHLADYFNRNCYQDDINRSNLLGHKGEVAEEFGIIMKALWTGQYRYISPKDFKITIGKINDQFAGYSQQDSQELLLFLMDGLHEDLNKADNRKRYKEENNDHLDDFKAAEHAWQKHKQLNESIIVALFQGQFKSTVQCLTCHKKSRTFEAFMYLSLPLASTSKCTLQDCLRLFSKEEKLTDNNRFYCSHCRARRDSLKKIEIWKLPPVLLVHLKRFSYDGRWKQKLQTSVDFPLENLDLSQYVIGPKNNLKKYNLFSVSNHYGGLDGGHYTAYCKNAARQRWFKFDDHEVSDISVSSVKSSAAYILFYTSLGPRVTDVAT

[2] = biological target: T2, Ubiquitin thioesterase OTUB1 (Homo sapiens, UniProt Q96FW1); test: Inhibition of N-terminal His-6 tagged OTUB1 (40 to 271 residues) (unknown origin) expressed in Escherichia coli BL21 (DE3) cells at 100 nM using Ub-Rho measured after 0.5 to 3 hrs by fluorescence based Plate reader method relative to control; conditions: time 0.5-3 hrs, values are per cent of control
[3] = biological target: T2, Ubiquitin thioesterase OTUB1; test: Inhibition of N-terminal His-6 tagged OTUB1 (40 to 271 residues) (unknown origin) expressed in Escherichia coli BL21 (DE3) cells at 10 nM using Ub-Rho measured after 0.5 to 3 hrs by fluorescence based Plate reader method relative to control; conditions: time 0.5-3 hrs, values are per cent of control
[4] = biological target: T1, Ubiquitin carboxyl-terminal hydrolase 8 (Homo sapiens); test: Inhibition of N-terminal His-6 tagged USP8 (734 to 1110 residues) (unknown origin) expressed in Escherichia coli BL21 (DE3) cells at 100 nM measured after 3 hrs by fluorescence based Plate reader method relative to control; conditions: values are per cent of control

T2 sequence (Q96FW1 whole entry, the tested form may be a part): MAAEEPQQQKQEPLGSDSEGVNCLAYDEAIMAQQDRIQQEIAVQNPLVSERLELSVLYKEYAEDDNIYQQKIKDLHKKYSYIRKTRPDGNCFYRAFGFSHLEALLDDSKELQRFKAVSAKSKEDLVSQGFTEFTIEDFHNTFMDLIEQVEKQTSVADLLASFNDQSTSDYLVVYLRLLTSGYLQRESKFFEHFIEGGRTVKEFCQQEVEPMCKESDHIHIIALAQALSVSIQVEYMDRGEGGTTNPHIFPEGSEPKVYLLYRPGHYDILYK

Row | Structure (SMILES) | residual activity [1] [%] | residual activity [2] [%] | residual activity [3] [%] | residual activity [4] [%]
1 | CN1CC[C@@H](Oc2ccc(-c3nc4c(o3)C(=O)c3ccccc3C4=O)c(Cl)c2)C1 | 58.9 | 35.1 | 70.9 | 34.7
2 | COc1ccc(Cl)c(-c2nc3c(o2)C(=O)c2ccccc2C3=O)c1 | 47.1 | 25.8 | 63.2 | 24
3 | Cc1ccc(-c2nc3c(o2)C(=O)c2ccccc2C3=O)cc1 | 58.6 | 58.7 | 66.9 | 44.6
4 | O=C1c2ccccc2C(=O)c2oc(-c3ccc(F)cc3F)nc21 | 34.7 | 19.4 | 44.5 | 19.3
5 | O=C1c2ccccc2C(=O)c2oc(-c3ccc(Cl)cc3Cl)nc21 | 58.4 | 42.2 | 62.4 | 16
6 | COc1cccc(-c2nc3c(o2)C(=O)c2ccccc2C3=O)c1 | 52.7 | 30.9 | 61.7 | 32.9
7 | O=C1c2ccccc2C(=O)c2oc(-c3ccc(F)cc3Cl)nc21 | 28.5 | 23.5 | 47.6 | 37.4
8 | Cc1ccccc1-c1nc2c(o1)C(=O)c1ccccc1C2=O | 63.6 | 48.4 | 66.4 | 38.1
9 | COc1cccc(-c2nc3c(o2)C(=O)c2ccccc2C3=O)c1F | 42.6 | 22.4 | 52.9 | 25.5
10 | COc1cc(OC)cc(-c2nc3c(o2)C(=O)c2ccccc2C3=O)c1 | 72.2 | 48.1 | 83.6 | 52.2
11 | COc1cc(-c2nc3c(o2)C(=O)c2ccccc2C3=O)ccc1Cl | 53.6 | 40.4 | 70.2 | 30
12 | Cc1ccc(F)c(-c2nc3c(o2)C(=O)c2ccccc2C3=O)c1F | 62.1 | 22.7 | 53.7 | 30.5
13 | COc1cc(-c2nc3c(o2)C(=O)c2ccccc2C3=O)ccc1C | 57.9 | 59.9 | 70.8 | 56.7
14 | CN(C)CCOc1cccc(-c2nc3c(o2)C(=O)c2ccccc2C3=O)c1 | 60.4 | 28.7 | 66.7 | 31.7
15 | O=C1c2ccccc2C(=O)c2oc(-c3cccc(Cl)c3)nc21 | 66.3 | 34.7 | 60.4 | 49.3
16 | COc1ccc(F)c(-c2nc3c(o2)C(=O)c2ccccc2C3=O)c1 | 61.1 | 31.2 | 75 | 33.1
17 | Cc1cccc(Cl)c1-c1nc2c(o1)C(=O)c1ccccc1C2=O | 40.1 | 23.5 | 55.4 | 15.5
18 | COc1ccc(Cl)c(-c2nc3c(o2)C(=O)c2ccccc2C3=O)c1F | 74.1 | 26.3 | 48.7 | 20.4
19 | CN1CC[C@@H](Oc2cccc(-c3nc4c(o3)C(=O)c3ccccc3C4=O)c2F)C1 | 71.6 | 41.3 | 76.7 | 38.6
20 | COc1ccc2c(c1)C(=O)c1nc(-c3cccc(OCCN(C)C)c3)[nH]c1C2=O | 95.3 | 77.2 | 78.4 | 99.6
21 | O=C1c2ccccc2C(=O)c2oc(-c3cccc(F)c3F)nc21 | 40.1 | 19.8 | 50.2 | 22.7

Row | Structure (SMILES) | residual activity [1] [%] | residual activity [2] [%] | residual activity [3] [%] | residual activity [4] [%]
22 | O=C1c2ccccc2C(=O)c2oc(-c3ccccc3[N+](=O)[O-])nc21 | 51.1 | 19 | 47.2 | 21.6
23 | COc1cc(O[C@@H]2CCN(C)C2)cc(-c2nc3c(o2)C(=O)c2ccccc2C3=O)c1 | 71.2 | 44.2 | 77.1 | 46.2
24 | O=C1c2ccccc2C(=O)c2oc(-c3ccc(C(F)(F)F)cc3)nc21 | 37.8 | 29 | 60.3 | 18.2
25 | O=C1c2ccccc2C(=O)c2oc(-c3ccc(Cl)cc3)nc21 | 55.9 | 34.2 | 61.3 | 22.5
26 | CN1CCN(CCOc2cc(Cl)cc(-c3nc4c(o3)C(=O)c3ccccc3C4=O)c2)CC1 | 58.8 | 36.3 | 77.3 | 27.9
27 | O=C1c2ccccc2C(=O)c2oc(-c3c(Cl)cccc3Cl)nc21 | 44.6 | 21 | 52.4 | 24.9
28 | O=C1c2ccccc2C(=O)c2oc(-c3c(F)cccc3F)nc21 | 39.1 | 24 | 56.2 | 37.4
29 | CN1CC[C@@H](Oc2cc(Cl)cc(-c3nc4c(o3)C(=O)c3ccccc3C4=O)c2)C1 | 59.3 | 41.5 | 75 | 34.2
30 | O=C1c2ccccc2C(=O)c2oc(-c3cccc(OCCN4CCOCC4)c3)nc21 | 80 | 47.2 | 82.1 | 44.3
31 | COc1ccccc1-c1nc2c(o1)C(=O)c1ccccc1C2=O | 43.9 | 28.3 | 59.2 | 21.4
32 | O=C1c2ccccc2C(=O)c2oc(-c3ccc([N+](=O)[O-])cc3)nc21 | 20.2 | 16.3 | 36.1 | 9.3
33 | O=C1c2ccccc2C(=O)c2oc(-c3cccc([N+](=O)[O-])c3)nc21 | 41.9 | 18.9 | 47.8 | 29.4
34 | O=C1c2ccccc2C(=O)c2[nH]c(-c3ccccc3)nc21 | 92.5 | 78.3 | 84.3 | 92.5
35 | Cc1cccc(-c2nc3c(o2)C(=O)c2ccccc2C3=O)c1 | 63.6 | 49.2 | 63.1 | 40.9
36 | COc1cc(F)cc(-c2nc3c(o2)C(=O)c2ccccc2C3=O)c1 | 37.2 | 25.1 | 62.8 | 17.6
37 | COc1c(Cl)ccc(Cl)c1-c1nc2c(o1)C(=O)c1ccccc1C2=O | 56.9 | 42.4 | 69.4 | 35.6
38 | O=C1c2ccccc2C(=O)c2oc(-c3ccccc3Cl)nc21 | 43.1 | 25.1 | 60 | 20.8
39 | CN1CCN(CCOc2cc(-c3nc4c(o3)C(=O)c3ccccc3C4=O)ccc2Cl)CC1 | 82 | 38.2 | 75.9 | 50.9
40 | O=C1c2ccccc2C(=O)c2oc(-c3c(F)c(F)cc(F)c3F)nc21 | 38.3 | 14.1 | 39.4 | 24.1
41 | COc1cc(-c2nc3c(o2)C(=O)c2ccccc2C3=O)ccc1C(F)(F)F | 58.5 | 46.4 | 71.4 | 42.7
42 | CN1CC[C@@H](Oc2cccc(-c3nc4c(o3)C(=O)c3ccccc3C4=O)c2)C1 | 68.3 | 34 | 70.7 | 30
